# Where a SMILES comes first, the peptide text is derived from it. Bridges are numbered along the chain shown (N, C = ends). [ ]: non-standard residue; d: D form. The star is where a group is joined. Propyl(3-NH2) = NCCC*; Acm = CC(=O)NC*
# Assays:
# Homo sapiens = species on record: Homo sapiens; assay: Inhibition of ADP-induced platelet aggregation in human platelet rich citreated plasma in presence of 10-20 uM ADP.; type: functional
# Canis familiaris [1] = species on record: Canis familiaris; assay: Percent injected dose in the blood was determined by canine thrombosis model; type: functional, organism-based; conditions: Canis lupus familiaris
# Canis familiaris [2] = species on record: Canis familiaris; assay: Percent injected dose in the thrombus was determined by canine thrombosis model; type: functional, organism-based; conditions: Canis lupus familiaris
# [3] = Thrombus to blood ratio was determined by canine thrombosis model; type: functional
# [4] = Thrombus to muscle ratio was determined by canine thrombosis model; type: functional, Muscle tissue
Structure (SMILES),IC50 (Homo sapiens),also measured
CC(=O)NCSC[C@H](NC(=O)CNC(=O)[C@H](CSCNC(C)=O)NC(=O)CNC(=O)CNC(=O)[C@@H]1CSCC(=O)N[C@H](Cc2ccc(O)cc2)C(=O)N[C@@H](CCCN=C(N)N)C(=O)NCC(=O)N[C@@H](CC(=O)O)C(=O)N1)C(N)=O,1300 nM,–
CC(=O)NCSC[C@H](NC(=O)CNC(=O)[C@H](CSCNC(C)=O)NC(=O)CNC(=O)[C@H](CCCCN)NC(=O)[C@@H]1CSCC(=O)N[C@H](Cc2ccc(O)cc2)C(=O)N[C@@H](CSCCCN)C(=O)NCC(=O)N[C@@H](CC(=O)O)C(=O)N1)C(N)=O,160 nM,–
C[C@H](NC(=O)[C@H](CS)NC(=O)CNC(=O)[C@H](CCCCN)NC(=O)[C@H](CCCCN)NC(=O)CNC(=O)CNC(=O)[C@H](CCCCN)NC(=O)CNC(=O)CNC(=O)[C@H](CCCCN)NC(=O)[C@@H]1CSCC(=O)N[C@H](Cc2ccc(O)cc2)C(=O)N[C@@H](CSCCCN)C(=O)NCC(=O)N[C@@H](CC(=O)O)C(=O)N1)C(N)=O,80 nM,–
CC(=O)NCSC[C@H](NC(=O)CNC(=O)CNC(=O)[C@H]1CSCC(=O)N[C@@H](Cc2ccc(O)cc2)C(=O)N[C@H](CSCCCN)C(=O)NCC(=O)N[C@H](CC(=O)O)C(=O)N1)C(=O)NCC(=O)N[C@@H](CSCNC(C)=O)C(=O)NCC(=O)NCC(=O)N[C@@H](CSCC(=O)CC(=O)N[C@@H](CCCCN)C(=O)N[C@@H](CCCCN)C(=O)NCC(=O)N[C@@H](CS)C(=O)O)C(=O)NCC(=O)[C@@H]1CSC23SCC(NC(=O)[C@H](CSCC(=O)CC(=O)N[C@@H](CCCCN)C(=O)N[C@@H](CCCCN)C(=O)NCC(=O)N[C@@H](CS)C(=O)O)NC(=O)CNC(=O)CNC(=O)[C@H](CSCNC(C)=O)NC(=O)CNC(=O)[C@H](CSCNC(C)=O)NC(=O)CNC(=O)CNC(=O)[C@H]4CSCC(=O)N[C@@H](Cc5ccc(O)cc5)C(=O)N[C@H](CSCCCN)C(=O)NCC(=O)N[C@H](CC(=O)O)C(=O)N4)C(=O)N2CC(=O)N13 (some centres not stated),90 nM,–
CC(=O)NCSC[C@H](NC(=O)CNC(=O)CNC(=O)[C@@H]1CSCC(=O)N[C@H](Cc2ccc(O)cc2)C(=O)N[C@@H](CSCCCN)C(=O)NCC(=O)N[C@@H](CC(=O)O)C(=O)N1)C(=O)NCC(=O)N[C@@H](CSCNC(C)=O)C(=O)NCC(=O)NCC(=O)N[C@@H](CSC1CC(=O)[N+]2(CCCCCC2)C1=O)C(N)=O (some centres not stated),140 nM,–
NCCCC[C@H](NC(=O)[C@@H]1CSCC(=O)N[C@H](Cc2ccc(O)cc2)C(=O)N[C@@H](CSCCCN)C(=O)NCC(=O)N[C@@H](CC(=O)O)C(=O)N1)C(=O)N[C@@H](CS)C(=O)NCC(N)=O,140 nM,–
N=C(N)c1ccc(C[C@H]2NC(=O)[C@H](Cc3ccc(O)cc3)NC(=O)CSC[C@H](C(=O)N[C@@H](CCCCN)C(=O)NCC(=O)N[C@@H](CSCC(=O)CC(=O)N[C@@H](CCCCN)C(=O)N[C@@H](CCCCN)C(=O)NCC(=O)N[C@@H](CS)C(=O)O)C(=O)NCC(N)=O)NC(=O)[C@@H](CC(=O)O)NC(=O)CNC2=O)cc1,–,ID/g (Canis familiaris [1]): 0.0025%; ID/g (Canis familiaris [2]): 0.017%; Ratio [3]: 7.2
CC(=O)NCSC[C@H](NC(=O)CNC(=O)[C@H](CSCNC(C)=O)NC(=O)CNC(=O)CNC(=O)CNC(=O)[C@@H]1CSCC(=O)N[C@H](Cc2ccc(O)cc2)C(=O)N[C@@H](CCCN=C(N)N)C(=O)NCC(=O)N[C@@H](CC(=O)O)C(=O)N1)C(N)=O,1400 nM,–
CC(=O)NCSC[C@H](NC(=O)CNC(=O)[C@H](CSCNC(C)=O)NC(=O)CNC(=O)CNC(=O)CNC(=O)[C@@H]1CSCC(=O)N[C@H](Cc2ccc(O)cc2)C(=O)N[C@@H](CSCCCN)C(=O)NCC(=O)N[C@@H](CC(=O)O)C(=O)N1)C(N)=O ({CH2CO}-[dY]C(Propyl(3-NH2))GDCGGGC(Acm)GC(Acm)-NH2; thioether N-5),300 nM,–
N=C(N)c1ccc(C[C@@H]2NC(=O)[C@@H](Cc3ccc(O)cc3)NC(=O)CSC[C@@H](C(=O)N[C@@H](CCCCN)C(=O)NCC(=O)N[C@@H](CSCC(=O)CC(=O)N[C@@H](CCCCN)C(=O)N[C@@H](CCCCN)C(=O)NCC(=O)N[C@@H](CS)C(=O)O)C(=O)NCC(N)=O)NC(=O)[C@H](CC(=O)O)NC(=O)CNC2=O)cc1 [listing 1 of 2 here],–,Ratio [4]: 41
CC(=O)NCSC[C@H](NC(=O)CNC(=O)CNC(=O)[C@@H]1CSCC(=O)N[C@H](Cc2ccc(O)cc2)C(=O)N[C@@H](CSCCCN)C(=O)NCC(=O)N[C@@H](CC(=O)O)C(=O)N1)C(=O)NCC(=O)N[C@@H](CSCNC(C)=O)C(=O)NCC(=O)NCC(=O)N[C@@H](CSCC(=O)CC(=O)N[C@@H](CCCCN)C(=O)N[C@@H](CCCCN)C(=O)NCC(=O)N[C@@H](CS)C(=O)O)C(N)=O,110 nM,–
NCCCC[C@H](NC(=O)CNC(=O)CNC(=O)[C@@H]1CSCC(=O)N[C@H](Cc2ccc(O)cc2)C(=O)N[C@@H](CSCCCN)C(=O)NCC(=O)N[C@@H](CC(=O)O)C(=O)N1)C(=O)NCC(=O)N[C@@H](CCCCN)C(=O)NCC(=O)N[C@@H](CCCCN)C(=O)N[C@@H](CCCCN)C(=O)NCC(=O)N[C@@H](CS)C(=O)NCC(N)=O,110 nM,–

# More lines, in order of falling IC50 (Homo sapiens), values ahead:
IC50 (Homo sapiens),Structure (SMILES),also measured
80 nM,N=C(N)c1ccc(C[C@@H]2NC(=O)[C@@H](Cc3ccc(O)cc3)NC(=O)CSC[C@@H](C(=O)N[C@@H](CCCCN)C(=O)NCC(=O)N[C@@H](CS)C(=O)NCC(N)=O)NC(=O)[C@H](CC(=O)O)NC(=O)CNC2=O)cc1,–
50 nM,N=C(N)c1ccc(C[C@@H]2NC(=O)[C@@H](Cc3ccc(O)cc3)NC(=O)CSC[C@@H](C(=O)NCC(=O)NCC(=O)N[C@@H](CS)C(=O)NCC(=O)N[C@@H](CS)C(=O)NCC(=O)NCC(=O)N[C@@H](CSCC(=O)CC(=O)N[C@@H](CCCCN)C(=O)N[C@@H](CCCCN)C(=O)NCC(=O)N[C@@H](CS)C(=O)O)C(N)=O)NC(=O)[C@H](CC(=O)O)NC(=O)CNC2=O)cc1,–
40 nM,N=C(N)c1ccc(C[C@H]2NC(=O)[C@H](Cc3ccc(O)cc3)NC(=O)CSC[C@H](C(=O)N[C@@H](CCCCN)C(=O)NCC(=O)N[C@@H](CSCC(=O)CC(=O)N[C@@H](CCCCN)C(=O)N[C@@H](CCCCN)C(=O)NCC(=O)N[C@@H](CS)C(=O)O)C(=O)NCC(=O)NCC(=O)[C@@H]3CSC45SCC(NC(=O)CNC(=O)[C@H](CSCC(=O)CC(=O)N[C@@H](CCCCN)C(=O)N[C@@H](CCCCN)C(=O)NCC(=O)N[C@@H](CS)C(=O)O)NC(=O)CNC(=O)[C@H](CCCCN)NC(=O)[C@H]6CSCC(=O)N[C@@H](Cc7ccc(O)cc7)C(=O)N[C@H](Cc7ccc(C(=N)N)cc7)C(=O)NCC(=O)N[C@H](CC(=O)O)C(=O)N6)C(=O)N4CC(=O)N35)NC(=O)[C@@H](CC(=O)O)NC(=O)CNC2=O)cc1 (some centres not stated),–
40 nM,NCCCC[C@H](NC(=O)[C@@H]1CSCC(=O)N[C@H](Cc2ccc(O)cc2)C(=O)N[C@@H](CSCCCN)C(=O)NCC(=O)N[C@@H](CC(=O)O)C(=O)N1)C(=O)NCC(=O)N[C@@H](CS)C(=O)NCC(=O)N[C@@H](CS)C(=O)NCC(=O)NCC(=O)N[C@@H](CSC1CC(=O)[N+]2(COC2)C1=O)C(N)=O (some centres not stated),–
40 nM,CC(=O)NCSC[C@H](NC(=O)CNC(=O)CNC(=O)[C@@H]1CSCC(=O)N[C@H](Cc2ccc(O)cc2)C(=O)N[C@@H](CSCCCN)C(=O)NCC(=O)N[C@@H](CC(=O)O)C(=O)N1)C(=O)NCC(=O)N[C@@H](CSCNC(C)=O)C(=O)NCC(=O)NCC(=O)N[C@@H](CSC1CC(=O)[N+]2(CCCNCCC2)C1=O)C(N)=O (some centres not stated),–
30 nM,CC(=O)NCSC[C@H](NC(=O)CNC(=O)CNC(=O)[C@@H]1CSCC(=O)N[C@H](Cc2ccc(O)cc2)C(=O)N[C@@H](CSCCCN)C(=O)NCC(=O)N[C@@H](CC(=O)O)C(=O)N1)C(=O)NCC(=O)N[C@@H](CSCNC(C)=O)C(=O)NCC(=O)NCC(=O)N[C@@H](CSCC(=O)CC(=O)N[C@@H](CCCCN)C(=O)N[C@@H](CCCCN)C(=O)N[C@@H](CCCCN)C(=O)N[C@@H](CCCCN)C(=O)NCC(=O)N[C@@H](CS)C(=O)O)C(N)=O,–
30 nM,CC(=O)NCSC[C@H](NC(=O)CNC(=O)CNC(=O)[C@@H]1CSCC(=O)N[C@H](Cc2ccc(O)cc2)C(=O)N[C@@H](CSCCCN)C(=O)NCC(=O)N[C@@H](CC(=O)O)C(=O)N1)C(=O)NCC(=O)N[C@@H](CSCNC(C)=O)C(=O)NCC(=O)NCC(=O)N[C@@H](CSC1CCNC(=O)CNCCNC(=O)CNCCNC(=O)C1)C(N)=O (some centres not stated),–
30 nM,N=C(N)c1ccc(C[C@@H]2NC(=O)[C@@H](Cc3ccc(O)cc3)NC(=O)CSC[C@@H](C(=O)N[C@@H](CCCCN)C(=O)NCC(=O)N[C@@H](CSCC(=O)CC(=O)N[C@@H](CCCCN)C(=O)N[C@@H](CCCCN)C(=O)NCC(=O)N[C@@H](CS)C(=O)O)C(=O)NCC(N)=O)NC(=O)[C@H](CC(=O)O)NC(=O)CNC2=O)cc1 [listing 2 of 2 here],–
